In the pKa sets of Baltruschat and Czodrowski (2020):

| SMILES | pKa (basic group) | pKa (acidic group) |
| --- | --- | --- |
| O=[N+]([O-])c1ccc(NO)cc1 | 0.65 | – |
| OCCc1ccccn1 | 5.37 | – |
| CN(C)C1CC(C)(C)NC(C)(C)C1 | 10.6 | – |
| Cc1ccc2c(c1)c1c3c(nccn32)CCC1 | 6.24 | – |
| NNC(=O)c1ccccc1N | 3.47 | 12.8 |
| O=C(O)c1ccc2ccccc2c1 | – | 4.2 |
| CC(C)[C@H](N)C(=O)[O-] | 9.66 | – |
| N/C(Cc1ccccc1)=N\O | 5.32 | – |
| C[n+]1ccc(-c2nc3ccccc3[nH]2)cc1 | 2.26 | 8.89 |
| Cc1cc([N+](=O)[O-])cc2c1nnn2O | – | 3.43 |
| Nc1c([O-])cccc1O | – | 11.6 |
| Nc1ccc([NH3+])c(N)c1 | 3.69 | – |
| C=CCNCC=C | 9.35 | – |
| CCC(C)N (configuration not stated) | 10.6 | – |
| C[Si](C)(C)CNC[Si](C)(C)C | 11 | – |
| OC1(c2ccco2)CN2CCC1CC2 (configuration not stated) | 9.06 | – |
| Cc1cc(N)nc(C)n1 | 6.85 | – |
| CN(C)c1cc[nH+]c2c(O)cccc12 | – | 7.05 |
| SCc1ncc[nH]1 | 6.37 | 9.26 |
| [NH3+]CCC(=O)N[C@@H](Cc1c[nH+]c[nH]1)C(=O)O | – | 2.63 |
| Cc1cc(C(C)(C)C)c(O)c(C(C)(C)C)c1 | – | 12.6 |
| Cn1c(=O)cnc2ccccc21 | -1.15 | – |
| O=C(NCCN1CCOCC1)c1ccc(Cl)cc1 | 6.31 | – |
| CC(C)P(=O)(O)C(C)C | – | 3.56 |
| Cc1cc(N)ccc1S(=O)(=O)Nc1nccs1 | – | 7.3 |

| SMILES | pKa (basic group) | pKa (acidic group) |
| --- | --- | --- |
| C/C(CCN(C)C)=N\[O-] | 11.2 | – |
| N#Cc1nn[nH]c1C#N | – | 1.47 |
| CNC(=O)C1CCCCN1 (configuration not stated) | 8.8 | – |
| C=CC(C)(C)Nc1ccccc1 | 4.88 | – |
| CCC1(CC)C(=O)NC(=O)N(C(=O)c2ccccc2OC)C1=O | – | 6.54 |
| CCc1ccc(C)nn1 | 4.17 | – |
| COCc1cccc(COC)n1 | 3.43 | – |
| C=CCNc1ccccc1 | 4.17 | – |
| Cc1cc(C[NH3+])c(O)c(C[NH3+])c1 | – | 7 |
| Cc1c(Cn2ccnc2)sc2ccc(C(=O)[O-])cc12 | 6.58 | – |
| CC1CNCCN1 (configuration not stated) | 9.9 | – |
| O=[N+]([O-])c1ccc2[nH]ncc2c1 | 0.13 | – |
| COCC/N=C(\c1ccccc1)C(C)(C)O | 5.75 | – |
| c1cc2[nH]cnc2cn1 | 6.1 | 10.9 |
| S=c1[nH]c2cc3c(cc2[nH]1)CCCC3 | – | 10.4 |
| C[NH+](C)CCCCCNc1c2ccccc2nc2cccc([N+](=O)[O-])c12 | 7.4 | – |
| CCOc1ccc2nccc([C@@H](O)[C@@H]3C[C@H]4CC[NH+]3C[C@@H]4CC)c2c1 | 4.05 | – |
| CCOC(=O)CC(NC)c1ccccc1 (configuration not stated) | 8.23 | – |
| CC1CCN1 (configuration not stated) | 11 | – |
| O=C(O)c1cccnn1 | – | 3 |
| Cn1cnc2c(N=O)c(O)ccc21 | 3.31 | 6.76 |
| Oc1cccc(Cl)c1 | – | 8.96 |
| COC(=O)CC(=O)c1ccncc1 | – | 8.24 |
| COC(=O)CC(=N/O)/C(C)=N/O | – | 9.77 |
| CC1(C)[C@@H](N)[C@@H]1N | 8.96 | – |

| SMILES | pKa (basic group) | pKa (acidic group) |
| --- | --- | --- |
| N[n+]1ccccc1O | – | 2.1 |
| c1cc2c(nn1)CCCC2 | 4.3 | – |
| CC(C)c1ccc(C(=O)/C=C/C(=O)O)cc1 | – | 3.4 |
| CN(C)Cc1cc([N+](=O)[O-])ccc1[O-] | 9.93 | – |
| CNc1nc(NC)c2cn[nH]c2n1 | 6.08 | – |
| CCCCNC(O)=S | – | 0.67 |
| COP(=O)([O-])NS(=O)(=O)c1ccccc1 | – | 6.25 |
| COc1ccc(CN)cc1N | 9.77 | – |
| C[n+]1c(NN)ccc2ccccc21 | 2.66 | – |
| CC[C@@H]1C(=O)OC[C@H]1Cc1cncn1C | 7.17 | – |
| [O-][n+]1ccc(NO)c2ccccc21 | – | 9.52 |
| O=C1C[C@@H](C(=O)O)[C@@H](C(=O)O)O1 | – | 2.26 |
| N#CC1C=CN(Cc2cccc(F)c2)C=C1C(N)=O (configuration not stated) | – | 0.68 |
| O=S(=O)(Nc1ccccc1)c1ccc(Cl)cc1 | – | 7.98 |
| CCc1cc(Cl)c(OC)c(C(=O)NC[C@H]2CCCN2CC)c1[O-] | 9.77 | – |
| COC(=O)C1CCCN(C)C1 (configuration not stated) | 8.45 | – |
| Oc1ccc2cccc(I)c2c1 | – | 8.98 |
| Cc1nc(Cc2ccccc2)c(O)o1 | – | 10.3 |
| CCCCNc1cc[nH+]c(S)n1 | – | 3.2 |
| CC(C)(C)c1ccccc1N | 3.78 | – |
| CC(O)(C(=O)O)c1ccccc1 (configuration not stated) | – | 3.53 |
| CCCC(=N)OCC | 7.08 | – |
| CC/C=C/CC(=O)O | – | 4.52 |
| NC1=[NH+][C@H]2C[C@@H](N1)[NH2+][C@@H]2C(=O)O | – | 1.3 |
| c1ccc(CSc2cnn[nH]2)cc1 | – | 8.2 |

| SMILES | pKa (basic group) | pKa (acidic group) |
| --- | --- | --- |
| CN(C)CCNCCN | 9.91 | – |
| Cc1cnc2ccc(C)c([N+](=O)[O-])c2c1NCCC[NH+](C)C | 6.07 | – |
| Cc1ccc(Sc2ccc([N+](=O)[O-])cc2C(=O)O)cc1 | – | 2.84 |
| CCCCCCCCNCc1ccc(C)cc1 | 9.47 | – |
| N#Cc1c(-c2nc3ccccc3s2)c(=O)oc2cc(O)ccc12 | – | 6.38 |
| CC(=O)c1cccc(NS(=O)(=O)C(F)(F)F)c1 | – | 3.75 |
| CC1CCCN1C (configuration not stated) | 10.2 | – |
| CC(=O)NN=C1CCN(C)CC1 | 7.45 | – |
| Cc1ccccc1NC(=O)CN1CCCCC1 | 7.7 | – |
| C/C(=C/Cl)C(=O)O | – | 3.05 |
| Cc1ccc(CCC(=O)O)cc1 | – | 4.74 |
| CN(C)C[C@@H]1[C@@H](N)[C@]2(C)CC[C@@H]1C2(C)C | 9.45 | – |
| CC(C)CCSC(=N)c1ccccc1 | 8.43 | – |
| Cc1cccc(N)c1-c1c(C)cccc1N | 3.7 | – |
| O=C1C[C@H]2C(=O)NC(=O)[C@H]2N1 | – | 8.15 |
| O=Cc1cccnc1 | 3.73 | – |
| Cc1cc(-c2ccc([NH3+])c(C)c2)ccc1N | 3.38 | – |
| Cc1cc(C)n(C)n1 | 3.96 | – |
| [O-]c1ccccc1/C=N/O | – | 12.1 |
| O=c1cc(O)c2ccccc2o1 | – | 4.1 |
| CN(c1ccccc1)C(C)(C)C | 7.5 | – |
| O=C(O)c1cccc(-c2nnn[nH]2)c1 | – | 3.74 |
| C1CCC(N2CCCC2)CC1 | 10.7 | – |
| CN1CCC=C(C(=O)[O-])C1 | 9.07 | – |
| CCCC(C)C1(CC)C(=O)NC(=O)NC1=O (configuration not stated) | – | 8.08 |

| SMILES | pKa (basic group) | pKa (acidic group) |
| --- | --- | --- |
| CBr | – | 15.4 |
| N#Cc1ccc(N)cc1 | 1.74 | – |
| COc1ccc(CN)c([N+](=O)[O-])c1 | 8.77 | – |
| C1CNCCNCC[NH2+]C1 | 6.75 | – |
| CC(C)[C@@H]1CC[C@@H](C)C[C@@H]1N | 10.5 | – |
| Cc1ccc(N(C)C)cc1 | 5.56 | – |
| CCC(C)(C)C(=O)O | – | 5.03 |
| CCP(=O)(CC)CC(C)=O | – | 11.9 |
| Cc1ccc(O)cc1C(=O)O | – | 3.92 |
| O=P([O-])([O-])c1cn2c(n1)[C@@H](O)[C@H](O)[C@@H](O)[C@@H]2CO | 7.69 | – |
| CN(C)Cc1ccccc1O | 8.6 | 11 |
| O=C(O)/C=C/c1ccccc1O | – | 4.56 |
| Nn1cnnc1S | – | 7.47 |
| Nc1ccc2[nH]c(CCc3ccccc3)nc2c1 | 7.2 | – |
| Oc1c(C(Nc2nc3ccccc3s2)c2ccccn2)ccc2cccnc12 (configuration not stated) | – | 10.9 |
| CCOC(=O)c1ccc(N)cc1 | 2.58 | – |
| c1ccc2c(c1)cnc1ccccc12 | 4.58 | – |
| Nc1nc(N)nc([S-])n1 | 7.8 | 10.2 |
| Oc1[nH+]ccc2cccnc12 | – | 2.64 |
| Nc1nc(O)[nH+]c2nc[nH]c12 | – | 4.51 |
| O=S(=O)([O-])c1cc(O)cc2[nH]ncc12 | – | 8.85 |
| O=C1NC(C(=O)O)CC1O (configuration not stated) | – | 3.8 |
| ClCC1CC2CCN1CC2 (configuration not stated) | 9.68 | – |
| N=c1c2ccccc2[nH]c2ccccc12 | 9.99 | – |
| Cc1cccc(C(=O)O)[nH+]1 | – | 0.9 |

| SMILES | pKa (basic group) | pKa (acidic group) |
| --- | --- | --- |
| CN(CCC[NH+](C)C)CCC[NH+](C)C | 6.4 | – |
| C[NH+](C)CCCCCCCCNC(=O)/C=N/O | – | 8.97 |
| O=C1c2ccccc2CN1C1CC2CCC(C1)N2Cc1ccccc1 (configuration not stated) | 8.71 | – |
| c1cnc2ccc3[nH+]cccc3c2c1 | 2.4 | – |
| CC(C)CCC(=O)O | – | 4.84 |
| CCCCCCCC[NH2+]CCC(=O)O | – | 3.56 |
| O=[N+]([O-])c1cc(Cl)ccc1O | – | 3.5 |
| CCNc1cc[nH+]c([O-])n1 | 4.58 | – |
| Cc1ccc(O)c(Cc2cc(C)cc([N+](=O)[O-])c2O)c1 | – | 6.87 |
| COc1ncc2[nH]cnc2n1 | 2.44 | 9.2 |
| c1c[nH]c(Cc2[nH]cc[nH+]2)n1 | 4.9 | – |
| N#Cc1ccccn1 | -0.26 | – |
| O=[N+]([O-])c1ccc2c(c1)Cc1cc(O)ccc1-2 | – | 9.01 |
| CC1(C)CC(NCCO)CC(C)(C)[NH2+]1 | 7.42 | – |
| Cc1cc(C)c2c(O)c(CC(=O)O)oc2c1 | – | 4.75 |
| COCCSC(C)O (configuration not stated) | – | 14.2 |
| c1ccc(CNc2ncnc3[nH]ncc23)cc1 | 4.16 | 10.9 |
| CCCCCCCCCCN(CC(C)O)CC(O)CC (configuration not stated) | 6.7 | – |
| COc1nc(N)c2[nH]cnc2n1 | 3.7 | 10 |
| C[N+](C)(C)CCc1cccc(O)c1 | – | 9.43 |
| C/C(=N\O)C(=O)[N-]O | – | 11 |
| O=C([O-])c1ccc(NS(=O)(=O)c2ccccc2)cc1 | – | 7.75 |
| [O-]c1ccncn1 | 8.59 | – |
| CCCc1ccnc2c1ccc1cccnc12 | 5.45 | – |
| Cc1ccc(C(=O)O)c(Br)c1 | – | 3.09 |

| SMILES | pKa (basic group) | pKa (acidic group) |
| --- | --- | --- |
| Cc1ccccc1C(=S)Nc1ccccc1 | – | 10.9 |
| CC1=CC(C)(C)SC(=S)N1 | – | 10.9 |
| C=Cc1ccccn1 | 4.92 | – |
| O=Cc1ncccc1O | 3.4 | 6.95 |
| [NH3+]CCC(=O)NCCc1c[nH]cn1 | 6.84 | – |
| CC[NH+]1CCC[C@@H]1CNC(=O)c1c(O)c(Br)cc(Br)c1OC | – | 5.88 |
| O=C(Nc1cccnc1)c1ccccc1 | 3.8 | – |
| COc1cccc(C=O)c1O | – | 7.91 |
| CC(N)c1nnn[n-]1 (configuration not stated) | – | 8.77 |
| C[NH+](C)CCc1ccc(O)cc1 | – | 9.46 |
| CCN(CC)Cc1cc(OC)ccc1O | 8.62 | 10.9 |
| C=CCN(C)CCOC(=O)C(=C)C | 7.39 | – |
| CCN(CC)CC(O)C[NH+](CC)CC | 7.74 | – |
| [O-]c1c(Cl)cc(Cl)c(Cl)c1CN1CCOCC1 | 8.83 | – |
| C[n+]1cc(O)cc2ccccc21 | – | 5.42 |
| COc1cc(S(C)=O)ccc1-c1cn2ccncc2n1 (configuration not stated) | 2.88 | – |
| COc1ccc(C2CCC[NH+]2C)cn1 (configuration not stated) | 1.34 | – |
| NCC(=O)c1ccc(O)cc1 | 8.05 | – |
| Oc1cnc2ccccc2c1 | 4.3 | 8.06 |
